According to patent US20260007758A1, “SO[…]-2 RECEPTOR (SST2R) NON-PEPTIDE DRUG CONJUGATES AND USES THEREOF” (Crinetics Pharmaceuticals, Inc., priority 2024, published 2026):

How the values were obtained:
Type in all cases: cell-based
[1] = molecular target: T1, human somatostatin receptor subtype 2 (Homo sapiens, UniProt P30874); assay: Functional assay for SSTR2 agonists (HTRF cAMP); conditions: CHO-K1 cells stably expressing human SST2; NKH477-stimulated cAMP; 20 min at 37 C; read-out: hSST2 cAMP Avg EC50
T1 construct: expressed in transfected cells
T1 sequence (P30874 whole entry): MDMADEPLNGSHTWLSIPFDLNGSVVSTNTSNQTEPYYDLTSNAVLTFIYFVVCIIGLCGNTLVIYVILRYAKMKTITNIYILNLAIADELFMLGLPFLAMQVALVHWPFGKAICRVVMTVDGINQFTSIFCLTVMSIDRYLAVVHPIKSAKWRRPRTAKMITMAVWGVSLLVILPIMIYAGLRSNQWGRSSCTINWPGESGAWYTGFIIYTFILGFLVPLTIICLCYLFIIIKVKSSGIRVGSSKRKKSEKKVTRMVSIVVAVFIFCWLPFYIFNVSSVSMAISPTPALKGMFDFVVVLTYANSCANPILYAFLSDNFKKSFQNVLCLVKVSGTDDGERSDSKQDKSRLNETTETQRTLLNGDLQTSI
In short: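 CHO-K1 cells stably expressing human SSTR2 treated with compound (typically 0-10,000 nM final) for 20 min at 37 °C. Lysate cAMP measured by HTRF (665/620 nm ratio), converted via standard curve; EC50 from cAMP vs concentration.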

[2] = molecular target: T2, SST2 (Homo sapiens, UniProt P30874); assay: PathHunter CHO-K1 SST2 Internalization Assay; conditions: PathHunter CHO-K1 SST2 cells; 90 min at 37 C; luminescence; read-out: Internalization EC50
T2 construct: host or cells: PathHunter CHO-K1 SST2 cells
T2 sequence (P30874 whole entry): as above
In short: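 CHO-K1 cells expressing human SST2, 2500 cells/well, grown 48 h, then exposed 90 min at 37 C to 11-point 1:3 NDC dilutions (final top 10 uM). Beta-Glo luminescence after 60 min at room temperature; four-parameter IC50, duplicate mean, background-corrected.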

[3] = test system: NCI-H524 human small cell lung cancer cells; assay: H524 assay: inhibition of cell proliferation (CellTiter Glo); conditions: 2 h treatment, washout, additional 70 h incubation
In short: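 NCI-H524 cells were exposed for 2 h to NDC in an 11-point two-fold series starting at 1 uM. The drug was then washed out and cells grew a further 70 h. CellTiter Glo luminescence gave % inhibition versus untreated control, and IC50 came from a four-parameter nonlinear regression.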

Row | Compound | EC50 [1] [nM] | EC50 [2] [nM] | EC50 [3] [nM]
1 | CC[C@H](C)[C@@H]([C@@H](CC(=O)N1CCC[C@H]1[C@H](OC)[C@@H](C)C(=O)N[C@H](C)[C@@H](O)c1ccccc1)OC)N(C)C(=O)[C@@H](NC(=O)[C@H](C(C)C)N(C)C(=O)OCc1ccc(NC(=O)[C@H](CCCNC(N)=O)NC(=O)[C@@H](NC(=O)c2cc(NCCCCCC(=O)NCCNc3ncc(-c4cc(C)cc(F)c4)c(N4CCC(N)CC4)c3-c3nc4ccc(F)cc4[nH]3)cc(C(=O)NCC(=O)O)c2)C(C)C)cc1)C(C)C [Compound 167] | 0.24 | 13 | 150
2 | CC[C@H](C)[C@@H]([C@@H](CC(=O)N1CCC[C@H]1[C@H](OC)[C@@H](C)C(=O)N[C@H](C)[C@@H](O)c1ccccc1)OC)N(C)C(=O)[C@@H](NC(=O)[C@H](C(C)C)N(C)C(=O)OCc1ccc(NC(=O)[C@H](CCCNC(N)=O)NC(=O)[C@@H](NC(=O)c2cc(NCCCCCC(=O)N(C)CC(=O)NCCNc3ncc(-c4cc(C)cc(F)c4)c(N4CCC(N)CC4)c3-c3nc4ccc(F)cc4[nH]3)cc(C(=O)NCC(=O)O)c2)C(C)C)cc1)C(C)C [Compound 168] | 0.17 | 5.8 | 34
3 | CC[C@H](C)[C@@H]([C@@H](CC(=O)N1CCC[C@H]1[C@H](OC)[C@@H](C)C(=O)N[C@H](C)[C@@H](O)c1ccccc1)OC)N(C)C(=O)[C@@H](NC(=O)[C@H](C(C)C)N(C)C(=O)OCc1ccc(NC(=O)[C@H](CCCNC(N)=O)NC(=O)[C@@H](NC(=O)c2cc(NC(=O)CCCC(=O)N(C)CC(=O)NCCNc3ncc(-c4cc(C)cc(F)c4)c(N4CCC(N)CC4)c3-c3nc4ccc(F)cc4[nH]3)cc(C(=O)NCC(=O)O)c2)C(C)C)cc1)C(C)C [Compound 169] | 0.1 | 10 | 32
4 | CC[C@H](C)[C@@H]([C@@H](CC(=O)N1CCC[C@H]1[C@H](OC)[C@@H](C)C(=O)N[C@H](C)[C@@H](O)c1ccccc1)OC)N(C)C(=O)[C@@H](NC(=O)[C@H](C(C)C)N(C)C(=O)OCc1ccc(NC(=O)[C@H](CCCNC(N)=O)NC(=O)[C@@H](NC(=O)c2cc(NC(=O)CCCC(=O)NCCNc3ncc(-c4cc(C)cc(F)c4)c(N4CCC(N)CC4)c3-c3nc4ccc(Cl)cc4[nH]3)cc(C(=O)NC[C@@H](N)C(=O)O)c2)C(C)C)cc1)C(C)C [Compound 170] | 0.31 | 12 | 22
5 | CC[C@H](C)[C@@H]([C@@H](CC(=O)N1CCC[C@H]1[C@H](OC)[C@@H](C)C(=O)N[C@H](C)[C@@H](O)c1ccccc1)OC)N(C)C(=O)[C@@H](NC(=O)[C@H](C(C)C)N(C)C(=O)OCc1ccc(NC(=O)[C@H](CCCNC(N)=O)NC(=O)[C@@H](NC(=O)c2cc(NC(=O)CCCC(=O)N(C)CC(=O)NCCNc3ncc(-c4cc(C)cc(F)c4)c(N4CCC(N)CC4)c3-c3nc4ccc(Cl)cc4[nH]3)cc(C(=O)NC[C@@H](N)C(=O)O)c2)C(C)C)cc1)C(C)C [Compound 171] | 0.33 | 8.3 | 14
6 | CC[C@H](C)[C@@H]([C@@H](CC(=O)N1CCC[C@H]1[C@H](OC)[C@@H](C)C(=O)N[C@H](C)[C@@H](O)c1ccccc1)OC)N(C)C(=O)[C@@H](NC(=O)[C@H](C(C)C)N(C)C(=O)OCc1ccc(NC(=O)[C@H](CCCNC(N)=O)NC(=O)[C@@H](NC(=O)c2cc(NCCCC(=O)N(C)CC(=O)NCCNc3ncc(-c4cc(C)cc(F)c4)c(N4CCC(N)CC4)c3-c3nc4ccc(Cl)cc4[nH]3)cc(C(=O)NC[C@@H](N)C(=O)O)c2)C(C)C)cc1)C(C)C [Compound 172] | 0.33 | 6.3 | 22
7 | CC[C@H](C)[C@@H]([C@@H](CC(=O)N1CCC[C@H]1[C@H](OC)[C@@H](C)C(=O)N[C@H](C)[C@@H](O)c1ccccc1)OC)N(C)C(=O)[C@@H](NC(=O)[C@H](C(C)C)N(C)C(=O)OCc1ccc(NC(=O)[C@H](CCCNC(N)=O)NC(=O)[C@@H](NC(=O)C2(NC(=O)CCCC(=O)N(C)CC(=O)NCCNc3ncc(-c4cc(C)cc(F)c4)c(N4CCC(N)CC4)c3-c3nc4ccc(Cl)cc4[nH]3)CCN(CC(=O)O)CC2)C(C)C)cc1)C(C)C [Compound 173] | 0.24 | 19 | 52
8 | CC[C@H](C)[C@@H]([C@@H](CC(=O)N1CCC[C@H]1[C@H](OC)[C@@H](C)C(=O)N[C@H](C)[C@@H](O)c1ccccc1)OC)N(C)C(=O)[C@@H](NC(=O)[C@H](C(C)C)N(C)C(=O)OCc1ccc(NC(=O)C(CCCNC(N)=O)NC(=O)[C@@H](NC(=O)c2cc(NC(=O)CCOCCC(=O)N(C)CC(=O)NCCNc3ncc(-c4cc(C)cc(F)c4)c(N4CCC(N)CC4)c3-c3nc4ccc(Cl)cc4[nH]3)cc(C(=O)NCC(=O)NCCN)c2)C(C)C)cc1)C(C)C (stereo partly drawn) [Compound 175] | 0.41 | 18 | 56
9 | CC[C@H](C)[C@@H]([C@@H](CC(=O)N1CCC[C@H]1[C@H](OC)[C@@H](C)C(=O)N[C@H](C)[C@@H](O)c1ccccc1)OC)N(C)C(=O)[C@@H](NC(=O)[C@H](C(C)C)N(C)C(=O)OCc1ccc(NC(=O)[C@H](CCCNC(N)=O)NC(=O)[C@@H](NC(=O)[C@H](CCc2nnn[nH]2)NC(=O)CCOCCC(=O)NCCNc2ncc(-c3cc(C)cc(F)c3)c(N3CCC(N)CC3)c2-c2nc3ccc(Cl)cc3[nH]2)C(C)C)cc1)C(C)C [Compound 176] | 0.28 | 3.7 | 620
10 | CC[C@H](C)[C@@H]([C@@H](CC(=O)N1CCC[C@H]1[C@H](OC)[C@@H](C)C(=O)N[C@H](C)[C@@H](O)c1ccccc1)OC)N(C)C(=O)[C@@H](NC(=O)[C@H](C(C)C)N(C)C(=O)OCc1ccc(NC(=O)[C@H](CCCNC(N)=O)NC(=O)[C@@H](NC(=O)c2cc(NCCOCCOCCOCCC(=O)NCCNc3ncc(-c4cc(C)cc(F)c4)c(N4CCC(N)CC4)c3-c3nc4ccc(Cl)cc4[nH]3)cc(C(=O)O)c2)C(C)C)cc1)C(C)C [Compound 177] | 0.23 | 11 | 2300
11 | CC[C@H](C)[C@@H]([C@@H](CC(=O)N1CCC[C@H]1[C@H](OC)[C@@H](C)C(=O)N[C@H](C)[C@@H](O)c1ccccc1)OC)N(C)C(=O)[C@@H](NC(=O)[C@H](C(C)C)N(C)C(=O)OCc1ccc(NC(=O)[C@H](CCCNC(N)=O)NC(=O)[C@@H](NC(=O)c2cc(NCCOCCOCCOCCC(=O)NCCNc3ncc(-c4cc(C)cc(F)c4)c(N4CCC(N)CC4)c3-c3nc4ccc(Cl)cc4[nH]3)cc(C(=O)OC)c2)C(C)C)cc1)C(C)C [Compound 178] | 0.27 | 5.6 | 620
12 | CC[C@H](C)[C@@H]([C@@H](CC(=O)N1CCC[C@H]1[C@H](OC)[C@@H](C)C(=O)N[C@H](C)[C@@H](O)c1ccccc1)OC)N(C)C(=O)[C@@H](NC(=O)[C@H](C(C)C)N(C)C(=O)OCc1ccc(NC(=O)[C@H](CCCNC(N)=O)NC(=O)[C@@H](NC(=O)c2cc(NCCOCCOCCOCCC(=O)NCCNc3ncc(-c4cc(C)cc(F)c4)c(N4CCC(N)CC4)c3-c3nc4ccc(Cl)cc4[nH]3)cc(C(=O)NCCN)c2)C(C)C)cc1)C(C)C [Compound 179] | 0.54 | 9.8 | 370
13 | CC[C@H](C)[C@@H]([C@@H](CC(=O)N1CCC[C@H]1[C@H](OC)[C@@H](C)C(=O)N[C@H](C)[C@@H](O)c1ccccc1)OC)N(C)C(=O)[C@@H](NC(=O)[C@H](C(C)C)N(C)C(=O)OCc1ccc(NC(=O)[C@H](CCCNC(N)=O)NC(=O)[C@@H](NC(=O)CCOCCOCCOCCOCCNc2ncc(C(=O)NCCNc3ncc(-c4cc(C)cc(F)c4)c(N4CCC(N)CC4)c3-c3nc4ccc(Cl)cc4[nH]3)cn2)C(C)C)cc1)C(C)C [Compound 180] | 0.52 | 16 | 680
14 | CC[C@H](C)[C@@H]([C@@H](CC(=O)N1CCC[C@H]1[C@H](OC)[C@@H](C)C(=O)N[C@H](C)[C@@H](O)c1ccccc1)OC)N(C)C(=O)[C@@H](NC(=O)[C@H](C(C)C)N(C)C(=O)OCc1ccc(NC(=O)[C@H](CCCNC(N)=O)NC(=O)[C@@H](NC(=O)C[C@@H](N)C(=O)NCCOCCC(=O)NCCNc2ncc(-c3cc(C)cc(F)c3)c(N3CCC(N)CC3)c2-c2nc3ccc(Cl)cc3[nH]2)C(C)C)cc1)C(C)C [Compound 181] | 0.38 | 3.4 | 190
15 | CC[C@H](C)[C@@H]([C@@H](CC(=O)N1CCC[C@H]1[C@H](OC)[C@@H](C)C(=O)N[C@H](C)[C@@H](O)c1ccccc1)OC)N(C)C(=O)[C@@H](NC(=O)[C@H](C(C)C)N(C)C(=O)OCc1ccc(NC(=O)[C@H](CCCNC(N)=O)NC(=O)[C@@H](NC(=O)c2ccc(NC(=O)CCOCCC(=O)NCCNc3ncc(-c4cc(C)cc(F)c4)c(N4CCC(N)CC4)c3-c3nc4ccc(Cl)cc4[nH]3)cc2O[C@@H]2OC(C(=O)O)[C@@H](O)[C@H](O)[C@H]2O)C(C)C)cc1)C(C)C (stereo partly drawn) [Compound 182] | 0.093 | 11 | 2300
16 | CC[C@H](C)[C@@H]([C@@H](CC(=O)N1CCC[C@H]1[C@H](OC)[C@@H](C)C(=O)N[C@H](C)[C@@H](O)c1ccccc1)OC)N(C)C(=O)[C@@H](NC(=O)[C@H](C(C)C)N(C)C(=O)OCc1ccc(NC(=O)[C@H](CCCNC(N)=O)NC(=O)[C@@H](NC(=O)c2ccc(NC(=O)CCOCCOCCOCCOCCC(=O)NCCNc3ncc(-c4cc(C)cc(F)c4)c(N4CCC(N)CC4)c3-c3nc4ccc(Cl)cc4[nH]3)cc2O[C@@H]2OC(C(=O)O)[C@@H](O)[C@H](O)[C@H]2O)C(C)C)cc1)C(C)C (stereo partly drawn) [Compound 183] | 0.074 | 3.1 | 1000
